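Exposure lasted 48 hours, with cells grown in 96-well plates and compounds tested at five concentrations. Here, GI50 denotes the concentration required for 50% inhibition of growth. TGI: total growth inhibition.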
Columns and labels:
Assay in all cases: NCI anticancer screen, dose series, 48 h
[1] = system: 786-0 renal
[2] = system: COLO 205 colon
[3] = system: DU-145 prostate
[4] = system: HT29 colon
[5] = system: KM12 colon
[6] = system: OVCAR-5 ovarian
[7] = system: OVCAR-8 ovarian
[8] = system: RPMI-8226 leukemia
[9] = system: UACC-257 melanoma
[10] = system: UACC-62 melanoma

SMILES	GI50 [1]	TGI [1]	GI50 [2]	TGI [2]	GI50 [3]	TGI [3]	GI50 [4]	TGI [4]	GI50 [5]	TGI [5]	GI50 [6]	TGI [6]	GI50 [7]	TGI [7]	GI50 [8]	TGI [8]	GI50 [9]	TGI [9]	GI50 [10]	TGI [10]
COc1cc(/C=C/[N+](=O)[O-])cc(Br)c1OC	1.95 µM	3.54 µM	2.17 µM	4.58 µM	1.8 µM	3.56 µM	1.81 µM	3.57 µM	3 µM	10.1 µM	14.3 µM	30.8 µM	3.54 µM	13.1 µM	2.59 µM	6.64 µM	2.88 µM	10.4 µM	3.49 µM	12.2 µM
CC(C)(C)c1ccc(C(=O)Nc2sc3c(c2C(N)=O)CCC(=O)C3)cc1	1.86 µM	5.07 µM	0.617 µM	1.63 µM	2.72 µM	11.1 µM	0.489 µM	3.5 µM	0.55 µM	2.34 µM	1.49 µM	3.82 µM	0.831 µM	4.85 µM	0.158 µM	0.581 µM	1.72 µM	4.19 µM	0.498 µM	2.01 µM
COc1ccc2cc(-c3c(-c4ccncc4)nc(-c4ccc(S(C)=O)cc4)n3C)ccc2c1 (stereo unspecified)	16.7 µM	> 25 µM	17 µM	> 25 µM	> 25 µM	> 25 µM	9.06 µM	> 25 µM	> 24.1 µM	> 25 µM	> 25 µM	> 25 µM	17.9 µM	> 25 µM	17 µM	> 25 µM	> 25 µM	> 25 µM	21 µM	> 25 µM
N#CN1CC[C@H](C(=O)Nc2ncc(-c3ccncc3)s2)C1	0.0415 µM	2.33 µM	< 0.0141 µM	0.045 µM	< 0.0238 µM	39.7 µM	< 0.0197 µM	1.96 µM	< 0.0213 µM	3.44 µM	0.0576 µM	> 77.3 µM	0.0596 µM	> 100 µM	< 0.0201 µM	1.27 µM	0.605 µM	6.91 µM	< 0.0172 µM	1.32 µM
Cc1ccc(C2=Nc3ccccc3SC(c3cccc([N+](=O)[O-])c3)C2)cc1 (stereo unspecified)	–	27 µM	–	> 100 µM	–	> 100 µM	–	> 100 µM	–	36.8 µM	–	> 100 µM	–	71.2 µM	–	5.19 µM	–	> 100 µM	–	> 100 µM
CSC(=S)N/N=C(\C)c1cccc(C)n1	–	28 µM	–	2.82 µM	–	12.8 µM	–	> 47.3 µM	–	42.6 µM	–	86.5 µM	–	28.1 µM	–	1.51 µM	–	21.9 µM	–	3.67 µM
CN(CCCCCl)P(=O)(OCCS(=O)(=O)CC(NC(=O)CCC(N)C(=O)O)C(=O)NC(C(=O)O)c1ccccc1)OCC1OC(n2cc(F)c(=O)[nH]c2=O)CC1O (stereo unspecified)	0.0155 µM	2.62 µM	10.1 µM	> 100 µM	0.214 µM	> 100 µM	2.68 µM	> 100 µM	13.3 µM	> 78 µM	> 27.4 µM	> 100 µM	0.274 µM	> 100 µM	–	1.48 µM	4.58 µM	> 100 µM	> 100 µM	> 100 µM
Cn1cncc1CC1COC(=O)C1C(O)c1ccccc1 (stereo unspecified)	–	> 100 µM	–	> 100 µM	–	> 100 µM	–	> 100 µM	–	> 100 µM	–	> 100 µM	–	> 100 µM	–	> 100 µM	–	> 100 µM	–	> 100 µM
C[CH2][Pb]([CH2]C)([CH2]C)[O]C(=O)c1ccc2ccccc2n1	> 10 µM	> 10 µM	> 10 µM	> 10 µM	> 10 µM	> 10 µM	> 10 µM	> 10 µM	> 10 µM	> 10 µM	> 10 µM	> 10 µM	> 10 µM	> 10 µM	> 10 µM	> 10 µM	> 10 µM	> 10 µM	> 10 µM	> 10 µM
COc1ccc(OC)c(Cn2cc3c(c2)-c2oncc2CC3)c1	5.49 µM	> 63.6 µM	3.56 µM	13.6 µM	3.74 µM	> 64.3 µM	2.35 µM	10.9 µM	3.02 µM	39.4 µM	6.08 µM	> 100 µM	5.27 µM	> 100 µM	3.39 µM	> 27.9 µM	5.11 µM	> 82.4 µM	3.97 µM	> 100 µM
COc1ccc(-c2cc(=O)c3c(OC)c(OC)c(OC)c(OC)c3o2)cc1	–	> 100 µM	–	> 100 µM	–	> 100 µM	–	> 100 µM	–	–	–	> 100 µM	–	> 100 µM	–	> 100 µM	–	> 100 µM	–	84 µM
Nc1ccc(-c2nc3ccccc3[nH]2)c2ccccc12	4.02 µM	> 41.4 µM	3.41 µM	24.6 µM	2.81 µM	> 22.3 µM	1.49 µM	14.6 µM	1.92 µM	16.1 µM	6.08 µM	> 53.5 µM	5.2 µM	65.1 µM	2.64 µM	> 37 µM	6.46 µM	> 100 µM	7.51 µM	> 27.6 µM
CCN(CCO)CC(C)Nc1ccc([N+](=O)[O-])c2sc3ccccc3c(=O)c12 (stereo unspecified)	1.37 µM	3.97 µM	1.62 µM	5.96 µM	1.24 µM	4.9 µM	1.42 µM	3.62 µM	1.47 µM	4 µM	3.68 µM	18.5 µM	1.18 µM	4.19 µM	1.26 µM	4 µM	1.47 µM	2.85 µM	1.63 µM	12.8 µM
COc1ccc(C2[C@@H](Cl)C(=O)N2c2cc(OC)c(OC)c(OC)c2)cc1Cl (stereo partly specified)	0.0389 µM	10.1 µM	0.203 µM	0.512 µM	0.37 µM	> 100 µM	0.221 µM	0.752 µM	0.178 µM	18.5 µM	0.369 µM	> 100 µM	0.272 µM	20.5 µM	0.279 µM	3.47 µM	–	–	0.0463 µM	29 µM

From PubChem BioAssay (NCI)
